Blank lines part the entries; values can stand above or below the compound they belong to.
Legend:
Histamine H3 receptor [1] = molecular target: T1, Histamine H3 receptor (Homo sapiens, UniProt Q9Y5N1); experiment: Displacement of [3H]NAMH from human histamine H3 receptor expressed in CHO cells; type: cell-based
Histamine H3 receptor [2] = molecular target: Histamine H3 receptor (Rattus norvegicus, UniProt Q9QYN8); experiment: Displacement of [3H]NAMH from rat histamine H3 receptor expressed in CHO cells; type: cell-based
[3] = Clearance in rat at 1 mg/kg, iv; type: ADME, organism-based; parameters: dose 1 mg/kg, route intravenous; settings: in vivo
[4] = Oral bioavailability in rat at 5 mg/kg; type: ADME, organism-based; settings: in vivo
Histamine H3 receptor [5] = molecular target: T1, Histamine H3 receptor; experiment: Antagonist activity at human histamine H3 receptor expressed in CHO cells assessed as inhibition of RAHM-induced [35S]GTPgammaS binding after 4 hrs by beta liquid scintillation counting; type: functional, cell-based
Rattus norvegicus [6] = experiment: Induction of wake promoting activity in ip dosed Sprague-Dawley rat EEG/EMG model assessed as increase in AUC of wake latency after 4 hrs post dosing; type: functional, organism-based
[7] = Half life in rat at 1 mg/kg, iv; type: ADME, organism-based; parameters: dose 1 mg/kg, route intravenous; settings: in vivo
[8] = Volume of distribution in rat at 1 mg/kg, iv; type: ADME, organism-based; parameters: dose 1 mg/kg, route intravenous; settings: in vivo
[9] = AUC (0 to t) in rat at 5 mg/kg, po; type: ADME, organism-based; parameters: dose 5 mg/kg, route oral; settings: plasma
[10] = Cmax in rat at 5 mg/kg, po; type: ADME, organism-based; parameters: dose 5 mg/kg, route oral; settings: in vivo
[11] = Ratio of drug level in brain to plasma in rat at 5 mg/kg, po; type: ADME, organism-based; parameters: dose 5 mg/kg, route oral; settings: read-out: BPR
[12] = Drug level in rat brain at 10 mg/kg, ip after 1 hr; type: ADME, organism-based; parameters: dose 10 mg/kg, route intraperitoneal; settings: read-out: Drug uptake
[13] = Ratio of drug level in brain to plasma in rat at 10 mg/kg, ip after 1 hr; type: ADME, organism-based; parameters: dose 10 mg/kg, route intraperitoneal; settings: read-out: BPR
[14] = Aqueous solubility of compound at pH 7.4; type: physicochemical
[15] = Half life in human liver microsomes; type: ADME, Microsome
[16] = Half life in mouse liver microsomes; type: ADME, Microsome
[17] = Half life in rat liver microsomes; type: ADME, Microsome
[18] = Half life in monkey liver microsomes; type: ADME, Macaca mulatta, Microsome; settings: rhesus monkey
Cytochrome P450 1A2 = molecular target: T2, Cytochrome P450 1A2 (Homo sapiens, UniProt P05177); experiment: Inhibition of CYP1A2; type: ADME
T2 sequence (P05177 whole entry): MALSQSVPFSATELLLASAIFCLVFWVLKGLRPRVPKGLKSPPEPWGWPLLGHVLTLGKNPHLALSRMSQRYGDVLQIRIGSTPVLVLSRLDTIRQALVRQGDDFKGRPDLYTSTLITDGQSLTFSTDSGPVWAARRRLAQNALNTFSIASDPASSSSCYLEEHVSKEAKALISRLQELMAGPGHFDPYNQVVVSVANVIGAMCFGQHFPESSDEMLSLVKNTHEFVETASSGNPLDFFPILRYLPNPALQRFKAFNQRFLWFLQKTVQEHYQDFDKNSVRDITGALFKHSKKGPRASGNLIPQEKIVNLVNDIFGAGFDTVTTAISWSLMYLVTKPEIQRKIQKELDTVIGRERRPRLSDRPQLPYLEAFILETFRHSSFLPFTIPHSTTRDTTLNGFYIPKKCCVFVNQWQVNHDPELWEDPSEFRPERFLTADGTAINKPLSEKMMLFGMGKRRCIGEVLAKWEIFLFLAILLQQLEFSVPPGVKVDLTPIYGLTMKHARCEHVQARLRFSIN

Cytochrome P450 2C9 = Cytochrome P450 2C9 (Homo sapiens, UniProt P11712); experiment: Inhibition of CYP2C9; type: ADME
Cytochrome P450 2C19 = Cytochrome P450 2C19 (Homo sapiens, UniProt P33261); experiment: Inhibition of CYP2C19; type: ADME
Cytochrome P450 2D6 = Cytochrome P450 2D6 (Homo sapiens, UniProt P10635); experiment: Inhibition of CYP2D6; type: ADME
Cytochrome P450 3A4 = Cytochrome P450 3A4 (Homo sapiens, UniProt P08684); experiment: Inhibition of CYP3A4; type: ADME
Rattus norvegicus [19] = experiment: Inhibition of RAMH-induced dipsogenia in ip dosed rat dipsogenia model; type: functional
Rattus norvegicus [20] = experiment: Induction of wake promoting activity in Sprague-Dawley rat EEG/EMG model assessed as AUC of cumulative wake time at 10 mg/kg, ip measured after 4 hrs post dosing (reference value: 114 +/- 9 mins); type: functional; settings: route intraperitoneal
Rattus norvegicus [21] = experiment: Induction of wake promoting activity in Sprague-Dawley rat EEG/EMG model assessed as AUC of cumulative wake time at 30 mg/kg, ip measured after 4 hrs post dosing (reference value: 114 +/- 9 mins); type: functional; settings: route intraperitoneal
Rattus norvegicus [22] = experiment: Induction of wake promoting activity in Sprague-Dawley rat EEG/EMG model assessed as increase of wake latency at 30 mg/kg, ip measured after 4 hrs post dosing; type: functional; settings: route intraperitoneal
Rattus norvegicus [23] = experiment: Induction of wake promoting activity in Sprague-Dawley rat EEG/EMG model assessed as time to maximal cumulative wake surplus at 30 mg/kg, ip measured after 6 hrs post dosing; type: functional; settings: route intraperitoneal
Rattus norvegicus [24] = experiment: Induction of wake promoting activity in Sprague-Dawley rat EEG/EMG model assessed as time for recovered sleep latency per hrat 30 mg/kg, ip measured after 6 to 22 hrs post dosing; type: functional; settings: route intraperitoneal
Rattus norvegicus [25] = experiment: Induction of wake promoting activity in Sprague-Dawley rat EEG/EMG model assessed as retained wake latency at 30 mg/kg, ip measured after 22 hrs post dosing; type: functional; settings: route intraperitoneal
Rattus norvegicus [26] = experiment: Induction of wake promoting activity in Sprague-Dawley rat EEG/EMG model assessed as surplus wake time at 30 mg/kg, ip measured after 22 hrs post dosing; type: functional; settings: route intraperitoneal
Rattus norvegicus [27] = experiment: Induction of wake promoting activity in Sprague-Dawley rat EEG/EMG model assessed as maximum cumulative wake surplus time at 10 mg/kg, ip measured after 3 hrs post dosing; type: functional; settings: route intraperitoneal
Rattus norvegicus [28] = experiment: Induction of wake promoting activity in Sprague-Dawley rat EEG/EMG model assessed as maximum cumulative wake surplus time at 10 mg/kg, ip measured after 22 hrs post dosing; type: functional; settings: route intraperitoneal
Rattus norvegicus [29] = experiment: Induction of wake promoting activity in Sprague-Dawley rat EEG/EMG model assessed as fold increase in wake latency at 30 mg/kg, ip measured after 4 hrs post dosing relative to control; type: functional; settings: route intraperitoneal
Histamine H1 receptor = Histamine H1 receptor (Homo sapiens, UniProt P35367); experiment: Binding affinity to human histamine H1 receptor
Histamine H2 receptor = Histamine H2 receptor (Homo sapiens, UniProt P25021); experiment: Binding affinity to human histamine H2 receptor
Histamine H4 receptor = Histamine H4 receptor (Homo sapiens, UniProt Q9H3N8); experiment: Binding affinity to human histamine H4 receptor
Histamine H3 receptor [30] = molecular target: T1, Histamine H3 receptor; experiment: Inhibition of basal activity of human histamine H3 receptor expressed in CHO cells assessed as inhibition of RAHM-induced [35S]GTPgammaS binding after 4 hrs by beta liquid scintillation counting; type: functional, cell-based

T1 sequence (Q9Y5N1 whole entry): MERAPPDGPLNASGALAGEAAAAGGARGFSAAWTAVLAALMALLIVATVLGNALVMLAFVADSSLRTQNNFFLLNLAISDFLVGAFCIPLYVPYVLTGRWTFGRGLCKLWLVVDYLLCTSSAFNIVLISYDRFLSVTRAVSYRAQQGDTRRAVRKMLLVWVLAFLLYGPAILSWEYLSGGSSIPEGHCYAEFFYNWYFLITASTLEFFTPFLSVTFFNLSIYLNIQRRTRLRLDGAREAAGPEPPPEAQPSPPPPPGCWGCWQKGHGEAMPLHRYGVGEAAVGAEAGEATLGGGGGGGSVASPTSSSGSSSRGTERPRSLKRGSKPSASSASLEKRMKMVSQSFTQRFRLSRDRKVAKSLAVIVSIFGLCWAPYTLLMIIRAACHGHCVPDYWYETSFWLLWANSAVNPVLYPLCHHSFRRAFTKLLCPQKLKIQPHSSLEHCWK
Sequence of Histamine H3 receptor (Rattus norvegicus, UniProt Q9QYN8) (Q9QYN8 whole entry): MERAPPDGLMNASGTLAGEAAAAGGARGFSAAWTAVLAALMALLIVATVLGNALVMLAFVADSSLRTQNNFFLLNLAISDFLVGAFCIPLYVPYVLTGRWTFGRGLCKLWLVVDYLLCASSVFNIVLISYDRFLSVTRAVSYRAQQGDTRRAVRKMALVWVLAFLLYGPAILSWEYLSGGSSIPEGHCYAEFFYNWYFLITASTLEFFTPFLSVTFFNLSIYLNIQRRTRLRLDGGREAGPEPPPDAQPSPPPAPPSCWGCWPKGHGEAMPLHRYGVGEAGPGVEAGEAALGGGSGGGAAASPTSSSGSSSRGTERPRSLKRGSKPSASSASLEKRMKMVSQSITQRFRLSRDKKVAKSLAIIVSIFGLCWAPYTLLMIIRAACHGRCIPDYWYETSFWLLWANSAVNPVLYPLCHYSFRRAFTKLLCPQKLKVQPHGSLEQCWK
Sequence of Histamine H1 receptor (P35367 whole entry): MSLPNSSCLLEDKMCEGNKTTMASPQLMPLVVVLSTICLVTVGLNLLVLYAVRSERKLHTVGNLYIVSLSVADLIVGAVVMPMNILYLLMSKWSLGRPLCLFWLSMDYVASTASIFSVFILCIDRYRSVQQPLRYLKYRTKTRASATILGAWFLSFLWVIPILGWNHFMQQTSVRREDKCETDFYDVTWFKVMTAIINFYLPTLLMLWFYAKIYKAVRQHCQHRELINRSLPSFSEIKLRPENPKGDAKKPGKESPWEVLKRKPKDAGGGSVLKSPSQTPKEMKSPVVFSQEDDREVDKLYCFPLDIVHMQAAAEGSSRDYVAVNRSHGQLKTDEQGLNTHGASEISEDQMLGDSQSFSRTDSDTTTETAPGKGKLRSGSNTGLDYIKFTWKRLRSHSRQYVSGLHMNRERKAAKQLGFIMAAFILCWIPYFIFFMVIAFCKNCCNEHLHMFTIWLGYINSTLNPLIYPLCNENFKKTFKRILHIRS
Sequence of Cytochrome P450 2C19 (P33261 whole entry): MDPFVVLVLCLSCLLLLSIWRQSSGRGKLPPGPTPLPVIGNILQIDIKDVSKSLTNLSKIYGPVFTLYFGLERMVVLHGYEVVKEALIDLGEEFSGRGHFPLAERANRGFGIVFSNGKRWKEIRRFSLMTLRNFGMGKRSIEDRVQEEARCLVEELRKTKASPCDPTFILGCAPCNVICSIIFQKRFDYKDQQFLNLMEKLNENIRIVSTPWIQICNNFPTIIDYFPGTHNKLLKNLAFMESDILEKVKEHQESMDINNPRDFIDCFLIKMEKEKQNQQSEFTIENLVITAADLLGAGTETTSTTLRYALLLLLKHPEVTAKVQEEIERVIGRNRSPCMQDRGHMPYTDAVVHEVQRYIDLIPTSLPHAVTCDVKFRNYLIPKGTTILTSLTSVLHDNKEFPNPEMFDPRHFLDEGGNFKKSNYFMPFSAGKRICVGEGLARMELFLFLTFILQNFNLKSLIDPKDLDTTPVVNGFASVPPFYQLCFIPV
Sequence of Cytochrome P450 2D6 (P10635 whole entry): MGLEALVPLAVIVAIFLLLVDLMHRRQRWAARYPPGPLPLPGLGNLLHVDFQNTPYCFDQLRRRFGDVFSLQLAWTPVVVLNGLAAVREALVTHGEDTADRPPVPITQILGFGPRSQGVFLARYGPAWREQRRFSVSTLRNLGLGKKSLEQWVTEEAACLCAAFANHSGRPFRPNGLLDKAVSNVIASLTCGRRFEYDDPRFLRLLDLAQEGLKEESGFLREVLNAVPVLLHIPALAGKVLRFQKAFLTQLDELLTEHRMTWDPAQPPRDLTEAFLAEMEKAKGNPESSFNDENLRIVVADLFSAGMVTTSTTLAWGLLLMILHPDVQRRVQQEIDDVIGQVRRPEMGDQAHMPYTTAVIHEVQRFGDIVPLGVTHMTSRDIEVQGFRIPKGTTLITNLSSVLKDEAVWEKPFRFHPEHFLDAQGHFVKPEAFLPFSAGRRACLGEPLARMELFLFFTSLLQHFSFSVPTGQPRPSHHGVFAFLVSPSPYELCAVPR
Sequence of Cytochrome P450 2C9 (P11712 whole entry): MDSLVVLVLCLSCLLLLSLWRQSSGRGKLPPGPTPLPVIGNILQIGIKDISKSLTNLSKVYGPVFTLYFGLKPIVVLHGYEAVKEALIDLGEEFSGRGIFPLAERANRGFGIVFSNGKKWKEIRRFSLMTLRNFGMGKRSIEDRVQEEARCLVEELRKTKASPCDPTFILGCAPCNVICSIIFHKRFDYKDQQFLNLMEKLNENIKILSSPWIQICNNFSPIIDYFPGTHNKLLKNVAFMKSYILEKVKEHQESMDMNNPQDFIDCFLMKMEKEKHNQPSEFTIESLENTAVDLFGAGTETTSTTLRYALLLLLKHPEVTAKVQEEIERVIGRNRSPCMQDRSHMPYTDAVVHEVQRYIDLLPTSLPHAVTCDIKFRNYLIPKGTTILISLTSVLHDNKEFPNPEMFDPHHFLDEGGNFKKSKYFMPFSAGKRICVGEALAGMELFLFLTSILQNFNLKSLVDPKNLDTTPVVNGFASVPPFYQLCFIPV
Sequence of Cytochrome P450 3A4 (P08684 whole entry): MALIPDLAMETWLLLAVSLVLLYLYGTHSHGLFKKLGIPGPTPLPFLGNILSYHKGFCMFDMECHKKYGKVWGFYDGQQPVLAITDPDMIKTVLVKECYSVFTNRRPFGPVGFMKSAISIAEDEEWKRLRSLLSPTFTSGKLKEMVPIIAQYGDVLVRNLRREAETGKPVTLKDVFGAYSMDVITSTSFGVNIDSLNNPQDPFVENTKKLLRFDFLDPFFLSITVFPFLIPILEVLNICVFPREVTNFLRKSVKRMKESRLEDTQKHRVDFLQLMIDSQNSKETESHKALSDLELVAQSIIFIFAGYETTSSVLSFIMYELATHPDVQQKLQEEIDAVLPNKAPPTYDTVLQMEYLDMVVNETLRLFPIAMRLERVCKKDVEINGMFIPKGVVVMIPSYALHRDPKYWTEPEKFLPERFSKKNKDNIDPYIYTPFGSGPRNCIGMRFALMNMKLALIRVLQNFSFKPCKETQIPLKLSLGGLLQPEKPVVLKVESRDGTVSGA
Sequence of Histamine H2 receptor (P25021 whole entry): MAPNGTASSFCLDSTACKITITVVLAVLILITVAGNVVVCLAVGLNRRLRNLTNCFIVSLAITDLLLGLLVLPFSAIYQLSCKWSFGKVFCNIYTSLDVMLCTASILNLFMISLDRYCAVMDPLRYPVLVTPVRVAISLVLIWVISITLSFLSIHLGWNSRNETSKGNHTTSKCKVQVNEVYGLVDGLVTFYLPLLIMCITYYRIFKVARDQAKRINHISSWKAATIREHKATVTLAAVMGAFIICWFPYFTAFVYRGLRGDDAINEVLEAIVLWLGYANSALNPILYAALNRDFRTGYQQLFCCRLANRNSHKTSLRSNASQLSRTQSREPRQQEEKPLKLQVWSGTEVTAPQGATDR

Ki (Histamine H3 receptor [1]): 3.4 nM
Ki (Histamine H3 receptor [2]): 3 nM
Structure (SMILES): C[C@@H]1CCCN1CCCOc1ccc(-c2cc(C#N)c(=O)n(C)c2)cc1

Ki (Histamine H3 receptor [1]): 18 nM
Ki (Histamine H3 receptor [2]): 144 nM
Structure (SMILES): C[C@@H]1CCCN1CCCOc1ccc(-c2cccn(C)c2=O)cc1

Ki (Histamine H3 receptor [1]): 3.5 nM
Ki (Histamine H3 receptor [2]): 7.9 nM
Structure (SMILES): C[C@@H]1CCCN1CCCOc1ccc(-c2cc(-c3ccccc3)c(=O)n(C)c2)cc1

Ki (Histamine H3 receptor [1]): 112 nM
Ki (Histamine H3 receptor [2]): > 500 nM
Structure (SMILES): C[C@@H]1CCCN1CCCOc1cccc(-c2ccc(=O)n(C)c2)c1

clearance [3]: 171 mL/min/kg
bioavailability [4]: 0%
Ki (Histamine H3 receptor [1]): 2 nM
Ki (Histamine H3 receptor [2]): 10 nM
Structure (SMILES): C[C@@H]1CCCN1CCCOc1ccc(-c2ccc(=O)n(Cc3ccccc3)c2)cc1

clearance [3]: 96 mL/min/kg
bioavailability [4]: 0%
Ki (Histamine H3 receptor [1]): 7.7 nM
Ki (Histamine H3 receptor [2]): 9 nM
Structure (SMILES): C[C@@H]1CCCN1CCCOc1ccc(-c2ccc(=O)[nH]c2)cc1

Ki (Histamine H3 receptor [1]): 4.9 nM
Ki (Histamine H3 receptor [2]): 21 nM
Structure (SMILES): C[C@@H]1CCCN1CCCOc1ccc(-c2cccc(=O)n2C)cc1

clearance [3]: 42 mL/min/kg
bioavailability [4]: 8%
Ki (Histamine H3 receptor [1]): 0.9 nM
Ki (Histamine H3 receptor [2]): 2.4 nM
Structure (SMILES): C[C@@H]1CCCN1CCCOc1ccc(-c2cn(C)c(=O)c3ccccc23)cc1

Kb (Histamine H3 receptor [5]): 0.2 nM
half-life [7]: 84 min
Vd [8]: 1.4 L/kg
clearance [3]: 11 mL/min/kg
AUC(0-t) [9]: 867 ng·h/mL
Cmax [10]: 190 ng/mL
bioavailability [4]: 11%
Kp [11]: 1.7
concentration at 1 h [12]: 2900 nM
Kp at 1 h [13]: 1.9
solubility [14]: > 300 µg/mL
half-life [15]: > 40 min
half-life [16]: > 40 min
half-life [17]: > 40 min
half-life [18]: > 40 min
IC50 (Cytochrome P450 1A2): > 30000 nM
IC50 (Cytochrome P450 2C9): > 30000 nM
IC50 (Cytochrome P450 2C19): > 30000 nM
IC50 (Cytochrome P450 2D6): > 30000 nM
IC50 (Cytochrome P450 3A4): > 30000 nM
Ki (Histamine H3 receptor [1]): 0.7 nM
Ki (Histamine H3 receptor [2]): 8.5 nM
Ki (Histamine H1 receptor): > 10000 nM
Ki (Histamine H2 receptor): > 10000 nM
Ki (Histamine H4 receptor): > 10000 nM
EC50 (Histamine H3 receptor [30]): 0.7 nM
Structure (SMILES): C[C@@H]1CCCN1CCCOc1ccc(-c2ccc(=O)n(C)c2)cc1
Activity (Rattus norvegicus [6]): Dose-dependent effect
ED50 (Rattus norvegicus [19]): 0.03 mg/kg
inhibition (Rattus norvegicus [19]): Dose-dependent effect
Time (Rattus norvegicus [20]): 160 min
Time (Rattus norvegicus [21]): 227 min
Activity (Rattus norvegicus [22]): 95%
Time (Rattus norvegicus [23]): 146 min
Time (Rattus norvegicus [24]): 6.3 min
Activity (Rattus norvegicus [25]): 35%
Time (Rattus norvegicus [26]): 51 min
Time (Rattus norvegicus [27]): 53 min
Time (Rattus norvegicus [28]): 33 min
fold change (FC) (Rattus norvegicus [29]): 2

Ki (Histamine H3 receptor [1]): 4.7 nM
Ki (Histamine H3 receptor [2]): 9.6 nM
Structure (SMILES): C[C@@H]1CCCN1CCCOc1ccc(-c2ccc(=O)n(-c3ccc(F)cc3)c2)cc1

clearance [3]: 138 mL/min/kg
bioavailability [4]: 17%
Ki (Histamine H3 receptor [1]): 1.8 nM
Ki (Histamine H3 receptor [2]): 19 nM
Structure (SMILES): C[C@@H]1CCCN1CCCOc1ccc(-c2ccc(=O)n(-c3ccccc3)c2)cc1

Ki (Histamine H3 receptor [1]): 3.2 nM
Ki (Histamine H3 receptor [2]): 12 nM
Structure (SMILES): C[C@@H]1CCCN1CCCOc1ccc(-c2ccn(C)c(=O)c2)cc1

— ChEMBL document CHEMBL1921690, “Synthesis and evaluation of pyridone-phenoxypropyl-R-2-methylpyrrolidine analogues as histamine H3 receptor antagonists” (Bioorg Med Chem Lett, 2011)
